{
  "source": "patent US12721833B2",
  "about": "“Small molecule anticancer agents, combinations and uses thereof” (University of Florida Research Foundation, Incorporated, priority 2020, dated 2026)",
  "key": {"AGR2": {"molecular_target": "T1, AGR2 (Homo sapiens, UniProt O95994)", "T1 sequence (O95994 21-175)": "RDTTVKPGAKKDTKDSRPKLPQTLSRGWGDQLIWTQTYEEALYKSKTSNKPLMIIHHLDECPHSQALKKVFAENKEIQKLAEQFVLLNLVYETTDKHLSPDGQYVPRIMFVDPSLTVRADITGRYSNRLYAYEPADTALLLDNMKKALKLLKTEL", "test": "Protein thiolate reactivity assay: biotin-tagged DDA binding to AGR2, with competitors", "details": "competition with DDAs", "experimental": "To measure DDA and NSC322072 covalent binding to AGR2, purified, recombinant AGR2 is incubated with a biotin-tagged DDA compound for 1 h at 37° C. in the presence or absence of non-biotinylated competitor DDAs or NSC322072. Reaction mixtures are boiled with SDS-PAGE sample buffer supplemented with 100 mM N-ethylmaleimide for ca. 10 minutes to block free thiolate groups remaining after the reaction. Conjugation of AGR2 by DDAs is measured by evaluating AGR2 modification in the modified immunoblot assay in Example 16.\nSamples from the biotin-DDA/AGR2 reactions (Example 14) are resolved by non-reducing SDS-PAGE and transferred to nitrocellulose membranes. The membranes are blocked and analyzed by immunoblot with antibodies to AGR2 to verify addition of AGR2 protein to the assays. Anti-AGR2 primary antibody is detected with an Alkaline Phosphatase-conjugated secondary antibody. Separate, replicate membranes are probed with Streptavidin-Alkaline phosphatase. […] Both the AGR2 immunoblots and the Streptavidin-Alkaline phosphatase blots are detected using the standard Alkaline Phosphatase detection compounds, Bromo-chloro-indoyl Phosphate (BCIP)/Nitroblue Tetrazolium (NBT)."}, "EGFR and HER2": {"test_system": "EGFR and HER2", "test": "EGFR and HER2 levels in patient-derived breast cancer cells (FIG. 4A)", "assay_type": "cell-based", "details": "patient-derived cells from a TNBC (HCI-001) and a drug resistant, metastatic, HER2+ breast cancer (HCI-012/MLR)"}, "[1]": {"test_system": "DR4, DR5, HER3 oligomerization and Akt phosphorylation", "test": "Immunoblot analysis in MDA-MB-468 TNBC and BT474 HER2+ lines (FIG. 2B)", "assay_type": "cell-based", "details": "the two compounds similar"}, "breast cancer cell lines": {"test_system": "breast cancer cell lines", "test": "Cell viability assays in breast cancer cell lines (FIG. 2C, FIG. 3B)", "assay_type": "cell-based", "details": "increasing concentrations", "experimental": "(§1) MTT cell viability is evaluated using MTT (3-(4,5-dimethylthiazol-2-yl)-2,5-diphenyltetrazolium bromide) assays carried out based on the manufacturer's instructions (kit CGD1, Sigma-Aldrich, St. Louis, MO)."}, "MDA-MB-468 cells": {"test_system": "MDA-MB-468 cells", "test": "MTT cell viability assay", "assay_type": "cell-based", "details": "for potency of cytotoxicity relative to tcyDTDO: MDA-MB-468 breast cancer cells, compared with tcyDTDO; for effect on cell viability: MDA-MB-468 cells, increasing concentrations (FIG. 7)", "experimental": "as §1"}, "[2]": {"test_system": "DR4, DR5, EGFR, GRP78, AGR2, XBP1s in MDA-MB-468 cells", "test": "Immunoblots in MDA-MB-468 cells (FIG. 9, FIG. 10)", "assay_type": "cell-based", "details": "for DR5 expression / ER-stress induced proteins GRP78 and AGR2: MDA-MB-468 cells (FIG. 9); for potency vs tcyDTDO in upregulating and oligomerizing DR4 and DR5 and increasing XBP1s, GRP78, and AGR2 / disulfide bond-dependent oligomerization of DR4, DR5, and EGFR: MDA-MB-468 cells; for potency vs tcyDTDO in upregulating and oligomerizing DR4 and DR5 and increasing XBP1s, GRP78, and AGR2: 2.5 mM (FIG. 10); for disulfide bond-dependent oligomerization of DR4, DR5, and EGFR: at the concentrations that induce cancer cell death (FIG. 9)"}, "[3]": {"test_system": "DR4, DR5, and EGFR oligomerization", "test": "Immunoblot with inhibitors of ER acetyltransferases (FIG. 3C)", "assay_type": "cell-based"}, "pancreatic PDX tumors": {"test_system": "pancreatic PDX tumors", "test": "Treatment of mice bearing pancreatic PDX tumors (FIG. 4B)", "assay_type": "in vivo", "details": "separation of cancer cells from stroma and pancreatic cancer cell death"}, "[4]": {"test_system": "human breast tumors growing in rodent models", "details": "cited from earlier work"}},
  "data": [
    {"molecule": "CCCCCC(C[N+]1(C)CCOCC1)C(=O)/C=C/c1ccccc1.[Br-]", "note": "(stereo not drawn) [NSC322072]", "values": [
      {"measurement": "binding site on AGR2 (competition experiments)", "setting": "AGR2", "value": "bind to the same site on AGR2"},
      {"measurement": "EGFR and HER2 levels", "setting": "EGFR and HER2", "value": "decrease EGFR and HER2 levels"},
      {"measurement": "Akt phosphorylation", "setting": "[1]", "value": "decrease Akt phosphorylation"},
      {"measurement": "DR4, DR5, and HER3 oligomerization", "setting": "[1]", "value": "increase DR4, DR5, and HER3 oligomerization"},
      {"measurement": "effect on cell viability", "setting": "breast cancer cell lines", "value": "decrease the viability of three different breast cancer cell lines in a concentration-dependent manner"}
    ]},
    {"molecule": "O=S1(=O)CC2CC(F)C(F)CC2CS1", "note": "(racemic) [dFtcyDTDO, (4aS,6S,7S,8aS)- and (4aR,6R,7R,8aR)-6,7-Difluorooctahydrobenzo[d][1,2]dithiine 2,2-dioxide]", "values": [
      {"measurement": "potency of cytotoxicity relative to tcyDTDO", "setting": "MDA-MB-468 cells", "value": 2, "unit": "fold"},
      {"measurement": "effect on cell viability", "setting": "MDA-MB-468 cells", "value": "decrease the viability of the cancer cell lines in a concentration-dependent manner"},
      {"measurement": "DR5 expression", "setting": "[2]", "value": "upregulate DR5"},
      {"measurement": "ER-stress induced proteins GRP78 and AGR2", "setting": "[2]", "value": "increase the ER-stress induced proteins GRP78 and AGR2"},
      {"measurement": "potency vs tcyDTDO in upregulating and oligomerizing DR4 and DR5 and increasing XBP1s, GRP78, and AGR2", "setting": "[2]", "value": "more potent than tcyDTDO"},
      {"measurement": "disulfide bond-dependent oligomerization of DR4, DR5, and EGFR", "setting": "[2]", "value": "induce disulfide bond-dependent oligomerization of DR4, DR5, and EGFR"}
    ]},
    {"molecule": "CNC(=O)Nc1ccc2c(c1)CC[C@@]21OC(=O)N(CC(=O)N(Cc2ccc(F)cc2)[C@@H](C)C(F)(F)F)C1=O", "note": "[A-485]", "values": [
      {"measurement": "DR4, DR5, and EGFR oligomerization", "setting": "[3]", "value": "without effect"}
    ]},
    {"molecule": "CO[C@H]1C[C@@H]2CS(=O)(=O)SC[C@H]2C[C@@H]1OC", "note": "(racemic) [DMtcyDTDO, (4aS,6S,7S,8aS)- and (4aR,6R,7R,8aR)-6,7-Dimethoxyoctahydrobenzo [d][1,2]dithiine 2,2-dioxide]", "values": [
      {"measurement": "potency relative to TcyDTDO", "setting": "MDA-MB-468 cells; FIG. 1B legend, test not stated there", "value": "twice as potent as TcyDTDO"},
      {"measurement": "potency of cytotoxicity relative to tcyDTDO", "setting": "MDA-MB-468 cells", "value": 2, "unit": "fold"},
      {"measurement": "effect on cell viability", "setting": "MDA-MB-468 cells", "value": "decrease the viability of the cancer cell lines in a concentration-dependent manner"},
      {"measurement": "DR5 expression", "setting": "[2]", "value": "upregulate DR5"},
      {"measurement": "ER-stress induced proteins GRP78 and AGR2", "setting": "[2]", "value": "increase the ER-stress induced proteins GRP78 and AGR2"},
      {"measurement": "potency vs tcyDTDO in upregulating and oligomerizing DR4 and DR5 and increasing XBP1s, GRP78, and AGR2", "setting": "[2]", "value": "more potent than tcyDTDO"},
      {"measurement": "disulfide bond-dependent oligomerization of DR4, DR5, and EGFR", "setting": "[2]", "value": "induce disulfide bond-dependent oligomerization of DR4, DR5, and EGFR"},
      {"measurement": "EGFR and HER2 levels", "setting": "EGFR and HER2", "value": "decrease EGFR and HER2 levels"},
      {"measurement": "Akt phosphorylation", "setting": "[1]", "value": "decrease Akt phosphorylation"},
      {"measurement": "DR4, DR5, and HER3 oligomerization", "setting": "[1]", "value": "increase DR4, DR5, and HER3 oligomerization"}
    ]},
    {"molecule": "O=S1(=O)CC2CCCCC2CS1", "note": "(stereo not drawn) [TcyDTDO]", "values": [
      {"measurement": "effect on pancreatic PDX tumors (H&E)", "setting": "pancreatic PDX tumors", "value": "causes disintegration of the tumors"},
      {"measurement": "in vivo anticancer activity", "setting": "[4]", "value": "established in vivo anticancer activity"}
    ]}
  ]
}
